From article PMC7696940, “Effects of Rationally Designed Physico-Chemical Variants of the Peptide PuroA on Biocidal Activity towards Bacterial and Mammalian Cells” (International Journal of Molecular Sciences, 2020)
In brackets after ≈: the same amount, converted by molar mass. Several values for one entry are separate records, joined by “and”; a condition that tells them apart may be missing. Equal values may be shown once. Where no end group is shown, it is not given here.

Key:
MRSA M173525 biofilm = test: Inhibition of preformed 6 h biofilm (CV and MTT assays); assay type: cell-based, methicillin-resistant Staphylococcus aureus; conditions: 37 °C, triplicate
Procedure: (§1) The effects of PuroA and other selected peptides (based on their antibacterial activity) on both the initial cell attachment and 6 h preformed biofilms of MRSA on polystyrene were tested as described by Jadhav et al., at their respective 0.5 × MIC, 1 × MIC, and 2 × MIC concentrations. All tests were conducted in triplicate. For testing the inhibition of initial cell attachment, 100 μL of peptide solutions were added to the microtitre plates, then mixed with 100 μL of M173525 cell suspension (1 × 10^6 CFU/mL, cultured in tryptic soy broth medium (TSB; Oxoid) containing 1% glucose), or 100 μL of sterile MilliQ water as negative control. The plates were incubated at 37 °C for 24 h to allow cell attachment. The biofilm formation was then assessed using CV and MTT assays. […] Peptide solutions (100 μL) were then added, the plates incubated at 37 °C for 1 h and the biofilms assessed.
(§2) The assay works as an indicator of attached living and non-living biomass. Indirect assessment of cell attachment of MRSA was estimated using the modified CV assay as per Jadhav et al.. After incubations of the plates (for 24 h or 1 h, as above), the culture medium from each well was removed gently and any non-adherent bacteria removed by washing the plates five times with sterile distilled water (dH2O). The plates were air-dried, then oven-dried at 60 °C for 1 h. The biofilm cells in the wells were stained with 100 μL of 1% CV and incubated for 15 min at room temperature. Excess stain was removed by washing the plates three times with sterile dH2O. Ethanol (95%, 125 µL) was transferred to each well to de-stain the cells. The de-staining solution from each well was then transferred to a new plate and its absorbance measured at 595 nm. The percentage inhibition of biomass formation concentration was calculated as: ((OD595 nm control well without peptide − OD5 95 well with peptide)/OD595 nm control well without peptide) × 100. All tests were conducted in triplicate.
(§3) A modified methylthiazotetrazolium (MTT) (3-[4,5-dimethyl thiazol-2-yl]-2, 5-diphenyltetrazolium bromide) reduction assay was used, wherein the blue product (MTT salt reduced to formazan by dehydrogenases) is taken as a respiratory indicator of live cells. Briefly, MTT (Sigma-Aldrich, Gillingham, UK) was dissolved in PBS to 5 mg/mL. After incubations of plates (for 24 h or 1 h, as above), the culture medium was gently removed and the plates air-dried. PBS (100 μL) and MTT (5 µL, 5 mg/mL) were added to each well and the plates incubated for 3 h at 37 °C. The insoluble purple product was dissolved in 100 µL of dimethyl sulphoxide (DMSO, Sigma-Aldrich, Gillingham, UK) and the absorbance measured at 570 nm. The % inhibition of metabolic activity was calculated as: ((OD570 nm control well without peptide − OD570 nm well with peptide)/OD570 nm control well without peptide) × 100. All tests were conducted in triplicate.

S. aureus ATCC25923 = assay type: cell-based, Staphylococcus aureus; conditions: MHB; for MIC S. aureus, No NaCl: 0 mM NaCl; for MIC S. aureus, No NaCl / MIC S. aureus, With 50mM NaCl / MIC S. aureus, With 100mM NaCl / MIC S. aureus, With 150mM NaCl: triplicate, mode; for MIC S. aureus ATCC25923: 37 °C overnight, A595, mode of three independent experiments
Procedure: (§4) The activity of peptides was determined against the Gram-positive Staphylococcus aureus (ATCC 25923), and the Gram-negative Escherichia coli (ATCC 25922) and Pseudomonas aeruginosa (ATCC 9027) bacteria. Selected peptides were also tested against two clinical isolates of methicillin-resistant Staphylococcus aureus (MRSA), M173525 and M180920, kindly provided by Dr P. B. Ward (Microbiology Department, Austin and Repatriation Medical Centre, Heidelberg West, Victoria, Australia). The Minimum inhibitory concentration (MIC) of peptides was determined by the microtitre broth dilution method, as described in Phillips et al.. Briefly, bacteria were grown in Mueller-Hinton Broth (MHB) at 37 °C overnight with shaking (200 rpm). The cultures were adjusted to 0.5 McFarland turbidity standard (approximately 1 × 10^8 colony forming units (CFU)/mL), then diluted 1:100 in MHB (1 × 10^6 CFU/mL). A total of 75 μL of these suspensions were mixed with 25 μL of peptide solutions (final concentrations 250 to 0.5 μg/mL) and the microtitre plates incubated overnight at 37 °C. Positive growth controls (inoculum and MHB, with no peptide) and sterility controls (0.01% glacial acetic) were also included. Post-incubations, the absorbance of cultures at 595 nm was measured using a microplate reader (POLARstar Omega, Germany). […] To evaluate salt sensitivity of peptides up to physiological levels (150 mM NaCl), overnight cultures of S. aureus and E. coli adjusted to 0.5 McFarland turbidity standard were diluted 1:100 in MHB containing 0, 50, 100 or 150 mM NaCl, and the MICs of peptides determined as above. All tests were conducted in triplicate. The results are shown as the mode of values obtained.

MRSA M173525 = test: Inhibition of initial cell attachment (CV and MTT assays); assay type: cell-based, methicillin-resistant Staphylococcus aureus; conditions: polystyrene, 24 h, 37 °C, triplicate
Procedure: as §1, §2, §3

E. coli and S. aureus = test: Salt tolerance (MICs under 0-150 mM NaCl, summary); assay type: cell-based, Escherichia coli; Staphylococcus aureus; design: key: Up to 50 mM: no effects on antibacterial activity up to 50 mM NaCl but increase in the MICs for E. coli and S. aureus at 100 mM NaCl; Intolerant: not resistant to salt effects even at 50 mM NaCl; Up to 150 mM: no effects on antibacterial activity up to 150 mM NaCl; conditions: MICs for E. coli and S. aureus in MHB with 0, 50, 100 or 150 mM NaCl
Procedure: as §4

[1] = tested on: pBlueScript SK+ plasmid DNA; test: In vitro DNA-binding assay (gel retardation); conditions: 100 ng pBlueScript SK+, peptide 8-500 µg/mL, 1 h room temperature, 1% agarose
Procedure: The ability of peptides to bind to purified DNA (indicative of in vivo DNA binding potential) was tested by the modified gel retardation assay developed by Alfred et al.. The DNA of pBlueScript SK+ (100 ng) was incubated with peptides (to final concentrations of 8, 16, 32, 64, 125, 250 or 500 µg/mL) in 15 µL volumes made with sterile MilliQ water, the held at room temperature for 1h. Loading dye was added to each sample and the samples electrophoresed on 1% agarose gels. The gels were then immersed in ethidium bromide ([…]) then visualized and imaged

Compound | % Inhibition of Preformed 6 h MRSA Biofilm after 1 h Incubation, CV (MRSA M173525 biofilm; 0.5 × MIC) [%] | % Inhibition of Preformed 6 h MRSA Biofilm after 1 h Incubation, MTT (MRSA M173525 biofilm; 0.5 × MIC) [%] | % Inhibition of Preformed 6 h MRSA Biofilm after 1 h Incubation, CV (MRSA M173525 biofilm; 1 × MIC) [%] | % Inhibition of Preformed 6 h MRSA Biofilm after 1 h Incubation, MTT (MRSA M173525 biofilm; 1 × MIC) [%] | % Inhibition of Preformed 6 h MRSA Biofilm after 1 h Incubation, CV (MRSA M173525 biofilm; 2 × MIC) [%] | % Inhibition of Preformed 6 h MRSA Biofilm after 1 h Incubation, MTT (MRSA M173525 biofilm; 2 × MIC) [%] | MIC S. aureus, No NaCl (S. aureus ATCC25923) [µg/mL] | MIC S. aureus, With 50mM NaCl (S. aureus ATCC25923) [µg/mL] | MIC S. aureus, With 100mM NaCl (S. aureus ATCC25923) [µg/mL] | MIC S. aureus, With 150mM NaCl (S. aureus ATCC25923) [µg/mL] | MIC S. aureus ATCC25923 (S. aureus ATCC25923) [µg/mL] | Percentage of Inhibition of Initial MRSA Cells Attachment, CV (MRSA M173525; 0.5 × MIC) [%] | Percentage of Inhibition of Initial MRSA Cells Attachment, MTT (MRSA M173525; 0.5 × MIC) [%] | Percentage of Inhibition of Initial MRSA Cells Attachment, CV (MRSA M173525; 1 × MIC) [%] | Percentage of Inhibition of Initial MRSA Cells Attachment, MTT (MRSA M173525; 1 × MIC) [%] | Percentage of Inhibition of Initial MRSA Cells Attachment, CV (MRSA M173525; 2 × MIC) [%] | Percentage of Inhibition of Initial MRSA Cells Attachment, MTT (MRSA M173525; 2 × MIC) | Salt Tolerance (E. coli and S. aureus) | Binding to DNA in vitro (concentration inhibiting plasmid migration) [1] [µg/mL]
CC(C)[C@H](NC(=O)[C@@H]1CCCN1C(=O)[C@@H](N)Cc1ccccc1)C(=O)N[C@H](C(=O)N[C@@H](Cc1c[nH]c2ccccc12)C(=O)N[C@@H](CCCNC(=N)N)C(=O)N[C@@H](Cc1c[nH]c2ccccc12)C(=O)N[C@@H](Cc1c[nH]c2ccccc12)C(=O)N[C@@H](CCCCN)C(=O)N[C@@H](Cc1c[nH]c2ccccc12)C(=O)N[C@@H](Cc1c[nH]c2ccccc12)C(=O)N[C@@H](CCCCN)C(=O)NCC(N)=O)[C@@H](C)O [PuroA] | 68 ± 9.2 | 90 ± 2.5 | 75 ± 7.5 | 92 ± 4.0 | 77 ± 7.0 | 95 ± 2.6 | 16 (≈ 8.59 µM) | 16 (≈ 8.59 µM) | 32 (≈ 17.2 µM) | 64 (≈ 34.4 µM) | 16 (≈ 8.59 µM) | 70 ± 5.6 | 92 ± 1.5 | 75 ± 4.0 | 95 ± 1.1 | 79 ± 4.5 | 95% and 95 ± 0.5% |  | 
RKRWWRWWKWWKR-NH2 [Peptide P1] | 70 ± 6.9 | 93 ± 5.0 | 74 ± 5.8 | 95 ± 3.8 | 78 ± 3.1 | 95 ± 4.0 | 16 | 16 | 16 | 16 |  | 72 ± 3.1 | 92 ± 3.0 | 75 ± 1.9 | 95 ± 2.3 | 78 ± 6.1 | 95 ± 2.5% | Up to 150 mM | 
WRWWKWW-NH2 [Peptide W7] | 67 ± 6.0 | 88 ± 2.5 | 75.5 ± 3.0 | 90 ± 4.7 | 75 ± 5.5 | 94 ± 0.5 | 8 | 8 | 8 | 8 | 8 | 69 ± 3.6 | 90 ± 2.9 | 75 ± 5.0 | 95 ± 4.0 | 76 ± 4.8 | 96 ± 1.5% | Up to 150 mM | ≥ 16
WWRWWKWW-NH2 [WW] | 69 ± 7.8 | 91 ± 3.0 | 71 ± 4.5 | 92 ± 3.5 | 74 ± 2.0 | 95 ± 1.7 | 8 | 8 | 8 | 8 | 8 | 71.5 ± 3.5 | 90 ± 2.0 | 73 ± 6.2 | 95 ± 3.1 | 79 ± 7.5 | 96 ± 0.5% |  | 
